Like-named read-outs stand apart in the source and are kept apart here. Peptide text beside a SMILES is read from it.
Tests used:
[1] = test system: HEK293T cells
Protocol: HEK293T cells were obtained from the American Type Culture Collection (CRL-3216). The cells were cultured in high-glucose Dulbecco’s modified Eagle’s medium supplemented with 1% penicillin and streptomycin (antibiotics) and 10% fetal bovine serum and grown at 37 °C in a humidified atmosphere containing 5% CO2.
One day before the experiment, an aliquot of 100 μl of the cells at 50,000 cells per ml was seeded into each well of the cell-treated 96-well plates used in the experiment (that is, 5,000 cells per well). […] After the incubation period, we performed the 3-(4,5-dimethylthiazol-2-yl)-2,5-diphenyltetrazolium bromide tetrazolium reduction assay (MTT assay)[53]. The MTT reagent was dissolved at 0.5 mg ml^−1 in medium without phenol red and was used to replace cell culture supernatants containing the peptides (100 μl per well), and the samples were incubated for 4 h at 37 °C in a humidified atmosphere containing 5% CO2 yielding the insoluble formazan salt. The resulting salts were then resuspended in hydrochloric acid (0.04 mol l^−1) in anhydrous isopropanol and quantified by spectrophotometric measurements of absorbance at 570 nm. All assays were done as three biological replicates.
Unless otherwise stated, all assays were performed in three independent biological replicates as indicated in each figure legend and Methods sections. The cytotoxic activities values were estimated using non-linear regression based on the range of concentrations screened and were shown as the values that cause lysis of 50% of the cells in the experiment. Two technical replicates were performed in the cytotoxicity assays within each of the three biological replicates.

[2] = test system: 11 clinically relevant bacterial pathogens; type: cell-based; conditions: Supplementary Dataset 2; against the 11 pathogens tested
Text: The following Gram-negative bacteria were used in our study: A. baumannii ATCC 19606, E. coli ATCC 11775, E. coli AIC221 (E. coli MG1655 phnE_2::FRT), E. coli AIC222 (E. coli MG1655 pmrA53 phnE_2::FRT (colistin resistant)), K. pneumoniae ATCC 13883, P. aeruginosa PAO1 and P. aeruginosa PA14. The following Gram-positive bacteria were also used in our study: S. aureus ATCC 12600, S. aureus ATCC BAA-1556 (methicillin-resistant strain), E. faecalis ATCC 700802 (vancomycin-resistant strain) and E. faecium ATCC 700221 (vancomycin-resistant strain). Bacteria were grown from frozen stocks and plated on Luria–Bertani (LB) or Pseudomonas isolation agar plates (P. aeruginosa strains) and incubated overnight at 37 °C. After the incubation period, a single colony was transferred to 5 ml of LB medium, and cultures were incubated overnight (16 h) at 37 °C. The following day, an inoculum was prepared by diluting the overnight cultures 1:100 in 5 ml of the respective media and incubating them at 37 °C until bacteria reached logarithmic phase (OD600 = 0.3–0.5).
The in vitro antimicrobial activity of the peptides was assessed by using the broth microdilution assay. […] Aqueous solutions of the peptides were added to the plate at concentrations ranging from 1 to 64 μmol l^−1. […] The optical density of the plates was measured at 600 nm using a spectrophotometer. All assays were done as three biological replicates.

[3] = test system: A. baumannii ATCC 19606; experiment: Neutropenic thigh infection mouse model; type: in vivo, CD-1 mice; conditions: neutropenic CD-1 mice
Protocol: Six-week-old female CD-1 mice from Charles River (stock number 18679700-022) were rendered neutropenic by two doses of cyclophosphamide (150 mg kg^−1) applied intraperitoneally with an interval of 72 h. One day after the last dose of cyclophosphamide, the mice were injected intramuscularly in their right thigh with a bacterial load of 10^6 c.f.u. ml^−1 of A. baumannii ATCC 19606 cells. The bacteria had been grown in LB broth, washed twice with PBS (pH 7.4), and resuspended to the desired concentration. Two hours after bacterial injection, peptides resuspended in water were administered intraperitoneally, and the untreated mice were inoculated with the same volume of deionized water. Before each injection, mice were anaesthetized with isoflurane and monitored for respiratory rate and pedal reflexes. Next, we monitored the establishment of the infection and euthanized the mice. The infected area was excised 2 days and 4 days post infection, homogenized using a bead beater for 20 min (25 Hz), and then serially diluted tenfold for quantification of colony-forming units in MacConkey agar plates. The experiments were performed with six mice per group. All experiments were performed blindly, and no animal subjects were excluded from the analysis. The thigh infection mouse model was approved by the University Laboratory Animal Resources from the University of Pennsylvania (protocol 807055). Statistical significance was determined using one-way ANOVA followed by Dunnett’s test in log10-transformed data to mitigate the effect of outliers; P values are presented for each group, with all groups being compared to the untreated control group.

[4] = test system: A. baumannii ATCC 19606; experiment: Skin abscess infection mouse model; type: in vivo, CD-1 mice; conditions: CD-1 mice
Protocol: A. baumannii ATCC 19606 cells were grown in LB medium to an OD600 = 0.5. Cells were washed twice with sterile phosphate-buffered saline (PBS) (pH 7.4, 13,000 r.p.m. for 2 min) and resuspended to a final concentration of 10^6 (A. baumannii cells) colony-forming units per millilitre (c.f.u. ml^−1). Six-week-old female CD-1 mice from Charles River (stock number 18679700-022) were anaesthetized with isoflurane, and their backs were sterilized and shaved. A superficial linear skin abrasion was made with a needle to damage the stratum corneum and upper layer of the epidermis. An aliquot of 20 μl containing the bacterial load resuspended in PBS was inoculated over the scratched area. Two hours after the infection, peptides diluted in water at their MIC value were administered to the infected area, and the untreated mice were inoculated with the same volume of deionized water. Mice were euthanized, and the area of scarified skin was excised 2 days and 4 days post infection, homogenized using a bead beater for 20 min (25 Hz) and then serially diluted tenfold for quantification of colony-forming units. This quantitative method was used as it has been established to accurately reflect the number of bacteria present in a given infected area. MacConkey agar plates were used as A. baumannii colonies appear purple in this medium and can easily be distinguished from other strains. The experiments were performed with six mice per group. All experiments were performed blindly, and no animal subjects were excluded from the analysis. The skin abscess infection mouse model was approved by the University Laboratory Animal Resources from the University of Pennsylvania (protocol 806763). Statistical significance was determined using one-way analysis of variance (ANOVA) followed by Dunnett’s test in log10-transformed data to mitigate the effect of outliers; P values are presented for each group, with all groups being compared to the untreated control group.

[5] = A. baumannii ATCC 19606, day 2, replicate 1
[6] = A. baumannii ATCC 19606, day 2, replicate 2
[7] = A. baumannii ATCC 19606, day 2, replicate 3
[8] = A. baumannii ATCC 19606, day 2, replicate 4
[9] = A. baumannii ATCC 19606, day 2, replicate 5
[10] = A. baumannii ATCC 19606, day 2, replicate 6
[11] = A. baumannii ATCC 19606, day 4, replicate 1
[12] = A. baumannii ATCC 19606, day 4, replicate 2
[13] = A. baumannii ATCC 19606, day 4, replicate 3
[14] = A. baumannii ATCC 19606, day 4, replicate 4
[15] = A. baumannii ATCC 19606, day 4, replicate 5
[16] = A. baumannii ATCC 19606, day 4, replicate 6

For `CC[C@H](C)[C@H](N)C(=O)N[C@@H](CC(C)C)C(=O)N[C@@H](CC(C)C)C(=O)N[C@H](C(=O)N[C@H](C(=O)N[C@@H](C)C(=O)N[C@H](C(=O)N[C@@H](C)C(=O)N[C@H](C(=O)N[C@@H](CCCCN)C(=O)N[C@@H](CC(C)C)C(=O)NCC(=O)N[C@@H](CC(C)C)C(=O)O)[C@@H](C)CC)[C@@H](C)CC)[C@@H](C)O)[C@@H](C)O` [Ararin-1] (H-ILLTTAIAIKLGL-OH; N-terminus and C-terminus assumed), the CC50 ([1]; 24 h) was > 128 µmol/L, the “TI (therapeutic index)” value ([1]; 24 h) was > 4 and the “Active or Inactive” value [2] was “Active”.

In the case of `CC[C@H](C)[C@H](NC(=O)[C@H](CCCCN)NC(=O)[C@H](CC(C)C)NC(=O)[C@H](Cc1c[nH]cn1)NC(=O)[C@@H](N)CC(C)C)C(=O)N[C@@H](CC(C)C)C(=O)N[C@@H](CCCCN)C(=O)N[C@H](C(=O)N[C@H](C(=O)N[C@@H](CCCNC(=N)N)C(=O)N[C@@H](CC(C)C)C(=O)N[C@@H](CC(C)C)C(=O)O)[C@@H](C)CC)[C@@H](C)CC` [Elephasin-1] (H-LHLKILKIIRLL-OH; N-terminus and C-terminus assumed), the “Active or Inactive” value [2] was “Active”.

For `CC[C@H](C)[C@H](NC(=O)[C@H](Cc1c[nH]cn1)NC(=O)[C@@H](N)CC(C)C)C(=O)NCC(=O)N[C@@H](CC(C)C)C(=O)N[C@H](C(=O)N[C@@H](CCCCN)C(=O)N[C@H](C(=O)N[C@@H](Cc1ccc(O)cc1)C(=O)N[C@@H](CC(C)C)C(=O)NCC(=O)N[C@@H](CO)C(=O)N[C@@H](Cc1ccccc1)C(=O)N[C@@H](C)C(=O)N[C@@H](CC(C)C)C(=O)O)[C@@H](C)O)[C@@H](C)CC` [Eudyptin-1] (H-LHIGLIKTYLGSFAL-OH; N-terminus and C-terminus assumed), the CC50 ([1]; 24 h) was > 128 µmol/L, the “TI (therapeutic index)” value ([1]; 24 h) was > 2 and the “Active or Inactive” value [2] was “Active”.

With `CC[C@H](C)[C@H](N)C(=O)N[C@H](C(=O)NCC(=O)N[C@@H](CC(N)=O)C(=O)N[C@H](C(=O)N[C@@H](Cc1ccccc1)C(=O)NCC(=O)N[C@@H](Cc1ccccc1)C(=O)N[C@@H](CCCCN)C(=O)N[C@@H](C)C(=O)N[C@@H](CC(C)C)C(=O)N[C@@H](CCCNC(=N)N)C(=O)N[C@@H](C)C(=O)N[C@@H](CC(C)C)C(=O)N[C@@H](CCCNC(=N)N)C(=O)N[C@@H](CC(C)C)C(=O)O)C(C)C)C(C)C` [Hesperelin-4] (H-IVGNVFGFKALRALRL-OH; N-terminus and C-terminus assumed) the “Active or Inactive” value [2] was “Active”.

For `CC[C@H](C)[C@H](NC(=O)[C@H](CCCCN)NC(=O)[C@H](CC(C)C)NC(=O)[C@H](CO)NC(=O)[C@@H](NC(=O)[C@H](CO)NC(=O)[C@H](CC(C)C)NC(=O)[C@H](CCCCN)NC(=O)[C@@H](NC(=O)[C@@H](NC(=O)[C@H](CC(N)=O)NC(=O)[C@@H](NC(=O)[C@@H](NC(=O)[C@@H](NC(=O)[C@H](Cc1c[nH]c2ccccc12)NC(=O)[C@@H](N)Cc1c[nH]cn1)[C@@H](C)CC)[C@@H](C)O)[C@@H](C)CC)[C@@H](C)O)[C@@H](C)CC)[C@@H](C)CC)C(=O)O` [Lophiosin-1] (H-HWITINTIKLSISLKI-OH; N-terminus and C-terminus assumed), the CC50 [1] was 68.02 µmol/L and the “Active or Inactive” value [2] was “Active”.

`CC[C@H](C)[C@H](NC(=O)[C@H](Cc1ccccc1)NC(=O)[C@@H](N)CC(C)C)C(=O)NCC(=O)N[C@@H](CC(C)C)C(=O)N[C@H](C(=O)N[C@@H](CC(N)=O)C(=O)N[C@@H](CC(C)C)C(=O)N[C@@H](CC(C)C)C(=O)NCC(=O)N[C@@H](CC(C)C)C(=O)N[C@@H](CC(C)C)C(=O)O)[C@@H](C)O` [Mammuthusin-4] (H-LFIGLTNLLGLL-OH; N-terminus and C-terminus assumed) was tested, and the CC50 ([1]; 24 h) was > 128 µmol/L and the “Active or Inactive” value [2] was “Active”.

For polymyxin B [reference compound], the “bacterial count, thigh infection (Panel 6d)” value (from here on “bacterial count … (Panel 6d)”) [3, 5] was 20000, the “bacterial count … (Panel 6d)” value [3, 6] was 80000 and the “bacterial count … (Panel 6d)” value [3, 7] was 200000. The “bacterial count … (Panel 6d)” value [3, 8] was 40000, the “bacterial count … (Panel 6d)” value [3, 9] was 40000 and the “bacterial count … (Panel 6d)” value [3, 10] was 200000. For the same molecule, the “bacterial count … (Panel 6d)” value [3, 11] was 200000, the “bacterial count … (Panel 6d)” value [3, 12] was 400000 and the “bacterial count … (Panel 6d)” value [3, 13] was 1200000. The “bacterial count … (Panel 6d)” value [3, 14] was 600000, the “bacterial count … (Panel 6d)” value [3, 15] was 600000 and the “bacterial count … (Panel 6d)” value [3, 16] was 200000. For the same molecule, the “bacterial count, skin abscess (Panel 6b)” value [4, 5] was 4000, the “bacterial count, skin abscess (Panel 6b)” value [4, 6] was 2000 and the “bacterial count, skin abscess (Panel 6b)” value [4, 7] was 8000. For the same molecule, the “bacterial count, skin abscess (Panel 6b)” value [4, 8] was 6000, the “bacterial count, skin abscess (Panel 6b)” value [4, 9] was 1400 and the “bacterial count, skin abscess (Panel 6b)” value [4, 10] was 400. The “bacterial count, skin abscess (Panel 6b)” value [4, 11] was 8000, the “bacterial count, skin abscess (Panel 6b)” value [4, 12] was 10000 and the “bacterial count, skin abscess (Panel 6b)” value [4, 13] was 600. For the same molecule, the “bacterial count, skin abscess (Panel 6b)” value [4, 14] was 600, the “bacterial count, skin abscess (Panel 6b)” value [4, 15] was 200 and the “bacterial count, skin abscess (Panel 6b)” value [4, 16] was 400.
